Experimental findings from patent US7273866B2, “2-aryl thiazole derivatives as KCNQ modulators” (Bristol-Myers Squibb Company, priority 2002, dated 2007) are described below.

Where only a bound is given, the exact number is not on record here.

Test [1] deals with peripheral mononeuropathy nerve injury-induced tactile allodynia. Put plainly: Chung model of neuropathic pain (Chung surgery and von Frey test). Type of test: in vivo, Sprague Dawley rats. As to conditions: 100 mg/kg, i.v.; von Frey thresholds over 90 min, rat. How it is done: Chung model of neuropathic pain (Chung surgery and von Frey test). To test agents for activity against peripheral mononeuropathy nerve injury-induced tactile allodynia, male Sprague Dawley rats (wt. 120-160 g) were surgically prepared with unilateral tight ligation of spinal nerves L5 and L6 following the method of Kim and Chung (Kim S. H., Chung J. M. (1992) Pain, September; 50(3):355-63). After 3-4 weeks recovery, paw withdrawal to light touch was assessed as described by Chaplan et al. (Chaplan S. R., et al., (1994) J. Neurosci Methods, July; 53(1):55-63). […] After acclimation, baseline von Frey thresholds were assessed for the injured hindpaw at −15 min. […] Following drug administration, von Frey thresholds were measured at 15, 30, 60 and 90 min. Data were analyzed by a 2-way repeated measures analysis of variance followed by Dunnett's test (p<0.05). […]
Reversal of neuropathic pain behavior may be expressed as a percentage (0-100%) of the maximum possible effect, over and above the vehicle effects. […]
For example, a compound which immediately reversed neuropathic pain behavior to normal levels, such that animals only responded to the highest von Frey filament (15 g), and maintained normal levels through out the post-drug testing period (90 min) would be calculated as Δ% MPE=100%.

In test [2] the test system is KCNQ channels. In words: Thallium flux assay for KCNQ channel openers. It is filed as cell-based. As to conditions: HEK-293 cells stably transfected with a KCNQ family member; for Min. conc. response: minimal active concentration: lowest concentration giving signal amplitude >= four standard deviations of negative controls; for EC50: thallium flux, 10 point concentration series. In short, it runs like this:
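HEK-293 lines stably expressing individual KCNQ members, loaded with BTC-AM in chloride-free buffer pH 7.3, compound added (1% DMSO final) before 7.5 mM Tl2SO4 stimulus; fluorescence read 60 s on FLIPR. Minimal active concentration at ≥4 SD above negative controls; EC50 from 10-point logistic fit.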

In the case of `NCC1(CC(=O)O)CCCCC1` [Gabapentin, gabapentin, reference compound], the “AUC (Δ % MPE)” value in test [1] was 50 (100 mg/kg, i.v.) Δ % MPE. Broadly, the EC50 is the concentration at which the effect is half-maximal. A high value points to lower potency in that assay. In test [2], `CC(NC(=O)c1sc(-c2ccc(N3CCOCC3)cc2)nc1C(F)(F)F)c1cccc(OC(F)(F)F)c1` (centres unmarked) [Example 58, 2-[4-(4-morpholinyl)phenyl]-4-(trifluoromethyl)-N-[1-[3-(trifluoromethoxy)phenyl]ethyl]-5-thiazolecarboxamide] registered a Min. conc. response of 30 µM and an EC50 of 50 to 1000 nM.

In test [2], `CC(NC(=O)c1sc(-c2ccccc2F)nc1C(F)(F)F)c1cccc(CN2CCOCC2)c1` (centres unmarked) [Example 37, 2-(2-fluorophenyl)-4-(trifluoromethyl)-N-[1-[3-[(4-morpholinyl)methyl]phenyl]ethyl]-5-thiazolecarboxamide] registered a Min. conc. response of 3 µM and a half-maximal effective concentration (EC50) of 1000 to 20000 nM. Taken in the same sequence, the figures for `COc1ccccc1-c1nc(C(F)(F)F)c(C(=O)N[C@@H](C)c2cccc(N3CCOCC3)c2)s1` [Example 23, 2-(2-methoxyphenyl)-4-(trifluoromethyl)-N-[1-[3-(1-morpholinyl)phenyl]ethyl]-5-thiazolecarboxamide] were 3 µM and 50 to 1000 nM. Regarding `COc1cccc(-c2nc(C(F)(F)F)c(C(=O)NC(C)c3ccc4c(c3)CCO4)s2)c1` (centres unmarked) [Example 86], the Min. conc. response in test [2] turned out to be 3 µM. In test [2], `COc1ccccc1-c1nc(C(F)(F)F)c(C(=O)NC(C)c2cccc(C(F)(F)F)c2)s1` (centres unmarked) [Example 19, 2-(2-methoxyphenyl)-4-(trifluoromethyl)-N-[1-[3-(trifluoromethyl)phenyl]ethyl]-5-thiazolecarboxamide] displayed a Min. conc. response of 3 µM and an EC50 of less than 50 nM.

Regarding `CC(NC(=O)c1sc(-c2ccccc2N2CCOCC2)nc1C(F)(F)F)c1cccc(OC(F)(F)F)c1` (centres unmarked) [Example 57, 2-[2-(4-morpholinyl)phenyl]-4-(trifluoromethyl)-N-[1-[3-(trifluoromethoxy)phenyl]ethyl]-5-thiazolecarboxamide], in test [2], the Min. conc. response was 0.3 µM and the EC50 was in the range of 50 to 1000 nM. Turning to `COc1ccc(F)cc1-c1nc(C(F)(F)F)c(C(=O)NCc2cccc(OC(F)(F)F)c2)s1` [Example 46, 2-(5-fluoro-2-methoxyphenyl)-4-(trifluoromethyl)-N-[(3-trifluoromethoxyphenyl)methyl]-5-thiazolecarboxamide], in test [2], the Min. conc. response amounted to 10 µM and the EC50 fell in the range of 1000 to 20000 nM.

For the compound `COc1ccccc1-c1nc(C(F)(F)F)c(C(=O)NCc2ccccn2)s1` [Example 84], the Min. conc. response in test [2] turned out to be 30 µM. In test [2], `CCN(Cc1ccncc1)Cc1cccnc1-c1nc(C(F)(F)F)c(C(=O)N[C@@H](C)c2cccc(N3CCOCC3)c2)s1` [Example 62] showed a Min. conc. response of 3 µM and a concentration for a half-maximal effect (EC50) of 50 to 1000 nM.
